{
  "source": "patent US10851348B2",
  "about": "“Proliferative primary human Sertoli cell cultures and their applications” (Mandalmed, Inc., priority 2006, dated 2020)",
  "key": {"[1]": {"system": "human Sertoli cells (MM-HSe-2305 cells)", "assay": "BrdU proliferation of human Sertoli cells in response to FSH treatment", "type": "cell-based", "conditions": "200-ng/ml FSH for 1 week; >50 fields; p<0.001 vs without FSH", "protocol": "It has been reported that cultured rat Sertoli cells, proliferate in response to recombinant FSH (Buzzard, Wreford et al. 2002). We determined the response of the human cells to FSH treatment to provide further evidence that they are Sertoli cells. The human Sertoli cells (MM-HSe-2305 cells; 7,000 per well) were placed in 8-well chamber slides and incubated with control media or with media containing 200-ng/ml FSH (Sigma-Aldrich) for 1 week. Then the cells were labeled with BrdU that is incorporated into nuclei during DNA synthesis prior to mitosis. The slides were stained with anti-BrdU antibody (finally stained by Texas red) followed by staining with an antibody to FSHr (finally with FITC), and nuclei marked by bisbenzamide.\nBriefly, the MM-HSE-2305 cells were labeled with BrdU (Roche; 100 μM) at 37° C./[…] for 2 hours then washed three times with PBS followed by fixing with 4% PFA for 30 min. […] Fluorescence was enhanced by incubating with ABC solution (Vector laboratories) for 30 min. Immunoreactivity was visualized by fluorescence microscopy using avidin-conjugated Texas red (1:200 in PBS) for 1 hour.\nPhotomicrographs were taken with different filters of the same field. The percentage of proliferating Sertoli cells was determined by the counting the number of FSHr, BrdU double positive cells and dividing this by the total number of cells per field. […]"}, "rat Sertoli cell TJs": {"system": "rat Sertoli cell TJs", "conditions": "cited from earlier work"}},
  "data": [
    {"compound": "follicle stimulating hormone [FSH]", "values": [
      {"measurement": "percent of cells undergoing proliferation (FSHr, BrdU double positive cells / total cells)", "setting": "[1]", "result": 12.35, "unit": "%"}
    ]},
    {"compound": "[Cl][Cd][Cl]", "note": "[Cadmium chloride, cadmium chloride]", "values": [
      {"measurement": "effect on permeability of rodent Sertoli cell monolayers", "setting": "rat Sertoli cell TJs; effect lasted for a number of days", "result": "increased the permeability"},
      {"measurement": "effect on Sertoli cell TJs", "setting": "rat Sertoli cell TJs; in vivo, and in vitro at the 5 and 10 μM concentration", "result": "damage rat Sertoli cell TJs"}
    ]}
  ]
}
